Assay results as given in patent US5444042A, “Method of treatment of neurodegeneration with calpain inhibitors” (Cortex Pharmaceuticals, priority 1994, dated 1995).
Where a SMILES comes first, the peptide text is derived from it.

How the values were obtained:
Calpain I [1] = target: T1, Calpain I (Homo sapiens, UniProt P07384); assay: Calpain I KI (Table 1B(ii)); assay type: biochemical; settings: for Ki: Table 1B(ii)
T1 sequence (P07384 1-714): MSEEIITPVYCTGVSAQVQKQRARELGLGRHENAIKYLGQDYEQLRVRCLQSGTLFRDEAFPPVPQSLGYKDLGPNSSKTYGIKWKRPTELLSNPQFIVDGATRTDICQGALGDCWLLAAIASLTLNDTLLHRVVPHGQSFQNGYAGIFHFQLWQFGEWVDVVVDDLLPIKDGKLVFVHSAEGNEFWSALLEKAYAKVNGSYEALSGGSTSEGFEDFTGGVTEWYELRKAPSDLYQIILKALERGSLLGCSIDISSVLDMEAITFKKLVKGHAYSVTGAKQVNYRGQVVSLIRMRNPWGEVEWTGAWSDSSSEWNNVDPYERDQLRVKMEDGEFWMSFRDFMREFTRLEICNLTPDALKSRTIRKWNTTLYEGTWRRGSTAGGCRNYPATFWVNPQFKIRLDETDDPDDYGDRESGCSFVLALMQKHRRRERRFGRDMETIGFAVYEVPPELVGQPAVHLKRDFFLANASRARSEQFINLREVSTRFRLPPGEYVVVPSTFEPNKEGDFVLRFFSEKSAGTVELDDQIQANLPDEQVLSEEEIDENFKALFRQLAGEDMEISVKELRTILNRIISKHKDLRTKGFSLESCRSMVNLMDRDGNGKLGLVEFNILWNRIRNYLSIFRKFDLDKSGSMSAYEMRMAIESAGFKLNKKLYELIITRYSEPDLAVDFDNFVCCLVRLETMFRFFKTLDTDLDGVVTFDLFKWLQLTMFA
T1 sequence (P04632 1-268 partner): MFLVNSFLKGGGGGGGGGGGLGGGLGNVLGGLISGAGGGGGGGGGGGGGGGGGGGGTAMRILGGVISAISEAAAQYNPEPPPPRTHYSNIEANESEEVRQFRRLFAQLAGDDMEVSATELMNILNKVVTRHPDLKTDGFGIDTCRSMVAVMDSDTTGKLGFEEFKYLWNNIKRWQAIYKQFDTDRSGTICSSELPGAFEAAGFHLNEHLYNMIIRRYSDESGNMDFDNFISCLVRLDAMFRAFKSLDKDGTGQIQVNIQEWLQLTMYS
Excerpt: (§1) We tested the ability of an additional group of Peptide Keto-Compounds to inhibit several proteases in order to evaluate their specificity for Calpain.

Calpain II [2] = assay: Calpain II KI (Table 1B(ii)); assay type: biochemical
Excerpt: as §1

Cathepsin B = Cathepsin B (Bos taurus, UniProt P07688); assay: Cathepsin B KI (Table 1B(ii)); assay type: biochemical; settings: read-out: KI CathB
Excerpt: as §1

Chym = Chym (Bos taurus, UniProt P00766); assay: Chym KI (Table 1B(ii)); assay type: biochemical
Excerpt: as §1

PP Elastase = PP Elastase (Sus scrofa, UniProt P00772); assay: PP Elastase KI (Table 1B(ii)); assay type: biochemical
Sequence of PP Elastase (P00772 27-266): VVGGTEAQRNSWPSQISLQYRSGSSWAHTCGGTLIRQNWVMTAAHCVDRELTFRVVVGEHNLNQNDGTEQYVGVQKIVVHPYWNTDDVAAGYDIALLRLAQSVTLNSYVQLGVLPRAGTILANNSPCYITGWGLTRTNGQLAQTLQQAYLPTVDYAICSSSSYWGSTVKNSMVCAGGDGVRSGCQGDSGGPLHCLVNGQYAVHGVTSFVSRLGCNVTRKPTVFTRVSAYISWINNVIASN
Excerpt: as §1

Stability in plasma = assay type: in vitro ADME; settings: unit assumed
Excerpt: (§2) We determined the haft-life of several Peptide Keto-Compounds in both plasma and liver homogenates.

[3] = Stability in liver homogenates; assay type: in vitro ADME; settings: unit assumed
Excerpt: as §2

Calpain within platelets = assay: Platelet membrane permeation assay, spectrin proteolysis (Examples 4A, 4B); assay type: cell-based, rat; settings: for IC50: concentration at which 50% of the Calpain activation present in controls occurred; for inhibition of Calpain within platelets: 100 μM, A23187 1 μM
In short: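 Rat (Sprague-Dawley) platelets at 10^7 cells/ml in HEPES buffer pH 7.4, preincubated 5 min with inhibitor, then 5 min with 1 μM A23187 to activate calpain. Spectrin proteolysis assessed by SDS-PAGE and anti-spectrin immunoblot, quantified by densitometry.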

[4] = tested on: rats with middle cerebral artery occlusion; assay: MCA occlusion model (Example 6); assay type: in vivo, rat; settings: infusion into femoral vein by 24 hr minipump; 24 hours after occlusion (FIG. 2)
Experimental: Male Sprague-Dawley albino rats weighing approximately 250-300 grams were anesthetized with pentobarbital (70 mg/kg, i.p.). The neck region was shaven and a 2 cm incision was made. The superficial fascia was teased away with tissue forceps and blunt tip tissue scissors using a spread method. The right common carotid artery was isolated away from the vagus nerve and tied off with a single suture (3.0 silk). The external carotid was permanently occluded by suturing. The bifurcation of the internal carotid and pterygopalatine arteries was exposed and a single microaneurysm clip was placed on the pterygopalatine. Another microaneurysm clip was placed on the common carotid just proximal to the external/internal bifurcation. A suture was placed loosely around the common carotid and a lumen was made in the vessel with the tip of a 25 g needle. A 40 mm nylon suture was prepared by melting the tip to smooth the pointed end and marked with a dot exactly 17.5 mm from the melted end. […]
Twenty-four hours after occlusion, the brains of these animals were removed and sliced into 2 mm sections. […] The sizes of the infarcted tissue zone ([…]) and impaired zone (area with partial development of red color) were evaluated using quantitative morphometry. […]

[5] = target: T2, Calpain I from human erythrocytes (Homo sapiens, UniProt P07384); assay: Calpain I Ki (Table 1B(i)); assay type: biochemical; settings: Suc-Leu-Tyr-amidomethylcoumarin, HEPES pH 7.2
T2 construct: Calpain I from human erythrocytes and calpain II from rabbit were assayed using Suc-Leu-Tyr-AMC; from tissue; host or cells: human erythrocytes
T2 sequence (P07384 1-714): T1 sequence (P07384 1-714)
T2 sequence (P04632 1-268 partner): T1 sequence (P04632 1-268 partner)
Experimental: The Peptide Keto-Compounds are reversible inhibitors of Calpains and other thiol proteases. […] Cathepsin B from bovine spleen was assayed using Z-Lys-4-nitrophenylphosphate as substrate.
The Ki value for the inhibition of Calpains and cathepsin B by several Peptide Keto-Compounds are shown in μM (micromolar). The values for leupeptin, which is commercially available from Calbiochem of La Jolla, Calif., are shown for comparison.

Calpain = assay: Kapp/[I] of other irreversible Calpain Inhibitors; assay type: biochemical
Excerpt: The kinetic constants of other irreversible Calpain Inhibitors include the following with Kapp /[I] in parentheses: E-64 (7500), E64-d (23000) and Z-leu-leu-tyr-CHN2 (230000). E-64 is commercially available from Sigma Chemical Co., and is shown here to be a poor inhibitor of Calpain.

hippocampal slices = assay: Hippocampal slice EPSP recovery from severe hypoxia (FIG. 5); assay type: cell-based, rat; settings: one hour incubation
Experimental: These studies were performed in a manner similar to that of Example 7B, except using a hypoxic environment in place of the anoxia of Example 7B. […] The control slices experienced little or no recovery.

Calpain I [6] = target: T1, Calpain I; assay: Calpain I 14C-methylated casein proteolysis (Table 1A); assay type: biochemical
Experimental: (§3) The isocoumarins are irreversible inhibitors of Calpain. We obtained IC50 values for a variety of these Calpain Inhibitors as a kinetic analysis of these compounds.
(§4) Calpains I and II were purified by the method of (Yoshimura, et al. 1983). (Kitahara 1984) provides an alternative purification scheme. Calpain II may alternatively be purchased from Sigma Chemical Co. as "Calcium Activated Neutral Protease." In this assay, purified Calpain was incubated with ^14 C-methylated casein in the presence of various Heterocyclic Compounds and the amount of acid-soluble radioactivity released by the action of Calpain was measured.

Calpain II [7] = target: T3, Calpain II (Homo sapiens, UniProt P17655); assay: Calpain II 14C-methylated casein proteolysis (Table 1A); assay type: biochemical
T3 construct: from tissue; purified by a cited method
T3 sequence (P17655 1-700): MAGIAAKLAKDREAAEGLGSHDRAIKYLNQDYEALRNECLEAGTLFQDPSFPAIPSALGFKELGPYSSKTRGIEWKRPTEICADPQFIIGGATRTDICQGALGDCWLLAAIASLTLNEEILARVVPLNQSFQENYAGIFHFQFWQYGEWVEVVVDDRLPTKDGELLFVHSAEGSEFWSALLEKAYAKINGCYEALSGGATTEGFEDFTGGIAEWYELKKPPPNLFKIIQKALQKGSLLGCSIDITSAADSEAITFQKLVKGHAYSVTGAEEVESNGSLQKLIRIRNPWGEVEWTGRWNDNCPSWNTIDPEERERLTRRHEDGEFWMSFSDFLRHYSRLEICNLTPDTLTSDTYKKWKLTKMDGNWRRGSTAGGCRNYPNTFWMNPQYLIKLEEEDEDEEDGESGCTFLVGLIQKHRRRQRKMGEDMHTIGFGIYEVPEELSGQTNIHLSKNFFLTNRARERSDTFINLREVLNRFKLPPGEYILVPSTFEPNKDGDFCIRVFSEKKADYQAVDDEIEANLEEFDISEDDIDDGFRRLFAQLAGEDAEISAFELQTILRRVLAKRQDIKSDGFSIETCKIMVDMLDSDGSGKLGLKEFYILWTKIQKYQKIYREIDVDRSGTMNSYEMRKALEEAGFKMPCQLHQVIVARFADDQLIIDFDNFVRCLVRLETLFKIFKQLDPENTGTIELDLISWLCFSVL
T3 sequence (P04632 1-268 partner): T1 sequence (P04632 1-268 partner)
Experimental: as §3, §4

[8] = tested on: Calpain in crude brain extracts; assay: Ca2+-stimulated spectrin proteolysis in crude brain extracts (Example 2); assay type: biochemical; settings: 100 μM
In short: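 Brain tissue was homogenized in 10 mM Tris pH 7.4, 0.32 M sucrose, 1 mM EGTA and 1 mM DTT, and nuclei and debris were removed. Calpain activity was scored as Ca^2+-stimulated proteolysis of endogenous spectrin.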

In the case of `CCNC(=O)C(=O)[C@H](CC)NC(=O)[C@H](CC(C)C)NC(=O)OCc1ccccc1` [Z-Leu-Abu-CONHEt, Z-Leu-Abu-CONH-Et], the Ki (Calpain I [1]) is reported as 0.5 µM, the “better inhibitor of calpain I than Z-Leu-Phe-CONH-Et” value (Calpain I [1]; ratio of KI values) is reported as 14 fold and the Ki (Calpain II [2]) is reported as 0.23 µM. The Ki (Cathepsin B) was 2.4 µM, the Ki (Chym) was over 150 µM and the Ki (PP Elastase) was 65 µM. For the same compound, the t1/2 plasma (Stability in plasma) was over 1 h, the t1/2 liver [3] was over 1 h and the IC50 (Calpain within platelets) was 1.5 µM. The “size of infarcted area” value [4] was “reduction in the size of the infarcted area”.
For `COC(=O)C(=O)C(C)NC(=O)C(C)NC(=O)C(C)NC(=O)OCc1ccccc1` (stereo not drawn) [Z-Ala-Ala-Ala-CO2 Me], the Ki [5] was 200 µM.
With `CC(C)C[C@H](NC(=O)OCc1ccccc1)C(=O)N[C@@H](CC(C)C)C(=O)N[C@@H](Cc1ccc(O)cc1)C(=O)C=[N+]=[N-]` [Z-leu-leu-tyr-CHN2] (HELM PEPTIDE1{[O=C(OCc1ccccc1)[*:2]].L.L.Y.[[N-]=[N+]=C[*:1]]}$$$$V2.0) the “Kapp/[I] Calpain” value (Calpain) was 230000.
In the case of `CCNC(=O)C(=O)[C@H](Cc1ccccc1)NC(=O)[C@H](CC(C)C)NC(=O)OCc1ccccc1` [Z-Leu-Phe-CONHEt, Z-Leu-Phe-CONH-Et], the Ki (Calpain I [1]) is reported as 7 µM, the Ki (Calpain II [2]) is reported as 0.32 µM and the Ki (Cathepsin B) is reported as 6 µM. The Ki (Chym) was 73 µM, the Ki (PP Elastase) was over 150 µM and the t1/2 plasma (Stability in plasma) was over 1 h. The t1/2 liver [3] was over 1 h, the IC50 (Calpain within platelets) was 1.7 µM and the “size of infarcted area” value [4] was “reduction in the size of the infarcted area”. For the same compound, the “percent recovery of EPSP from severe hypoxia (FIG. 5)” value (hippocampal slices) was about 100%.
For `CC(=O)Nc1ccc2c(Cl)c(OCCCSC(=N)N)oc(=O)c2c1` [CH3 CONH-CiTPrOIC, 7-(acetylamino)-4-chloro-3-(3-isothiureidopropoxy)isocoumarin], the IC50 (Calpain I [6]) was 700 µM, the IC50 (Calpain II [7]) was 80 µM and the “inhibition of spectrin proteolysis in crude brain extracts” value [8] was “significant inhibition”. For the same compound, the “inhibition of Calpain within platelets” value (Calpain within platelets) was “significant inhibition”.
With `N=C(N)SCCCOc1oc(=O)c2cc(NC(=O)NCc3ccccc3)ccc2c1Cl` [PhCH2 NHCONH-CiTPrOIC, 7-(benzylcarbamoylamino)-4-chloro-3-(3-isothiureidopropoxy)isocoumarin] the IC50 (Calpain I [6]) was 80 µM, the IC50 (Calpain II [7]) was 30 µM and the “inhibition of spectrin proteolysis in crude brain extracts” value [8] was “significant inhibition”. For the same compound, the “inhibition of Calpain within platelets” value (Calpain within platelets) was “significant inhibition”.
With `CC(C)C[C@H](NC(=O)[C@H]1O[C@@H]1C(=O)O)C(=O)NCCCCN=C(N)N` [Example E-64, E-64, reference compound] the “Kapp/[I] Calpain” value (Calpain) was 7500 and the “effect on intracellular (platelet) Calpain” value (Calpain within platelets; concentration not given) was “little effect”.
In the case of `CC(C)(C)OC(=O)N[C@@H](Cc1ccccc1)C(=O)Nc1ccc2c(Cl)c(OCCCSC(=N)N)oc(=O)c2c1` [BOC-L-Phe-NH-CiTPrOIC, 7-(N-t-butyloxycarbonyl-L-phenylalanylamino)-4-chloro-3-(3-isothiureidopropoxy)isocoumarin], the “IC50 Calpain I” value (Calpain I [6]) is reported as “no inhibition” and the IC50 (Calpain II [7]) is reported as over 200 µM.
In the case of `CCOC(=O)[C@H]1O[C@@H]1C(=O)N[C@@H](CC(C)C)C(=O)NCCC(C)C` [Example E64-d, Loxastatin], the “Kapp/[I] Calpain” value (Calpain) is reported as 23000.
